# Where two headings read alike, the source gives them in different places.
# Columns and labels:
# [1] = test system: leishmanial tubulin; format: biochemical; conditions: mean ± SD of at least one duplicate measurement, SD of controls 27.6%
# Procedure: (§1) 2000, 110, 223-236, incorporated herein by reference.^14
# Briefly, the tubulin assembly assays are performed as follows. […] The change in turbidity was measured at 351 nm using the SpectraMax Plus microplate reader immediately after GTP addition at 30° C. (for leishmanial tubulin) or 37° C. (for brain tubulin).
# [2] = test system: L. donovani promastigotes; assay: Growth inhibition of L. donovani promastigotes; format: cell-based, Leishmania donovani; conditions: read-out: IC50 vs. L. donovani promastigotes
# [3] = test system: L. donovani axenic amastigotes; assay: Growth inhibition of L. donovani axenic amastigotes (three-day tetrazolium dye assay); format: cell-based, Leishmania donovani
# Procedure: as §1
# (§2) Determination of the drug susceptibility of parasites and mammalian cells. The susceptibility of Leishmania donovani amastigote-like parasites (WHO designation: MHOM/SD/62/1S-CL2D) to growth inhibition by compounds of interest was measured in a three-day assay using the tetrazolium dye-based CellTiter reagent (Promega) (Werbovetz, K., Brendle, J., and Sackett, D. (1999) Mol. Biochem. Parasitol. 98, 53-65., and Havens, C., Bryant, N., Asher, L., Lamoreaux, L., Perfetto, S., Brendle, J., and Werbovetz, K. (2000) Mol. Biochem. Parasitol. 110, 223-236). The amastigote medium used in this assay is based on the medium mentioned by Joshi et al. (Joshi, M., Dwyer, D. M., and Nakhasi, H. L. (1993) Mol. Biochem. Parasitol. 58, 345-354). Prior to addition of fetal bovine serum to a final concentration of 20%, this amastigote medium contains 15 mM KCl, 115 mM KH2PO4, 10 mM K2HPO4, 0.5 mM MgSO4, 24 mM NaHCO3, a 1-concentration of RPMI-1640 vitamins and amino acids, 2.0 mM L-glutamine, 22 mM D-glucose, 100 units/mL penicillin, 100 ∝g/ml streptomycin, 0.1 mM adenosine, 1 ∝g/mL folate, and 25 mM MES (pH 5.5). Compounds were tested for their activity against bloodstream-form Trypanosoma brucei brucei (MITat 1.2, variant 221) axenically-cultured in HMI-9 medium , H., and Hirumi, K. (1989) J. Parasitol. 75, 985-989.) following the procedure of Ellis et al. (Ellis, J., Fish, W., Sileghem, M., and McOdimba, F. (1993) Vet. Parasitol. 50, 143-149.) with some modifications. Briefly, 100 μL of late log phase parasites were incubated in 96-well plates (Costar) at an initial concentration of 10^5 cells/ml with or without test compounds at 37° C. in a humidified 5% CO2 atmosphere for 72 hours. Twenty-five μL of a 5 mg/mL solution of MTT (prepared in phosphate buffered saline and filter sterilized) was then added to each well and plates were re-incubated at 37° C. as before for 2 h. One hundred ∝L of 20% SDS lysis buffer (prepared in 50% aqueous DMF) was added to each well and plates were incubated as before for an additional 3-4 h. Optical densities were then measured at 570 nm using SpectraMax Plus microplate reader. […] Assessment of the in vitro sensitivity of T. b. brucei Lab 110 EATRO and P. falciparum strains to compounds was performed by methods described in Donkor et al. (Donkor, I., Assefa, H., Rattendi, D., Lane, S., Vargas, M., Goldberg, B., and Bacchi, C. (2001) Eur. J. Med. Chem. 36, 531-538.) and Guan et al. (Guan, J., Kyle, D., Gerena, L., Zhang, Q., Milhous, W., and Lin, A. (2002) J. Med. Chem. 45, 2741-2748).
# [4] = test system: J774 murine macrophages; assay: Toxicity to J774 macrophages (three-day CellTiter assay); format: cell-based; conditions: read-out: IC50, J774 macrophages
# Procedure: The toxicity of compounds to J774 murine macrophages and PC3 […] cells was measured in a three-day assay using the CellTiter reagent. […] Macrophages were allowed to adhere for 24 hours, then the medium was removed and replaced with serial dilutions of the test compounds in the DMEM medium mentioned above without phenol red. After 72 hr incubation with the test compounds at 37° C. in a humidified 5% CO2 incubator, cell viability was determined using the CellTiter reagent by adding 20 μL of assay solution to each well. After a 6-7 h incubation at 37° C. to allow for color development, the absorbance of each well at 490 nm was measured in a SpectraMax Pro microplate reader (Molecular Devices). The toxicity of compounds to PC3 cells was assessed in the same manner as for the macrophages, except that the medium used was RPMI 1640 supplemented with 10% heat inactivated fetal calf serum, 2.0 mM L-glutamine, 50 units/mL penicillin, and 50 ∝g/mL streptomycin. IC50 values for the J774 and PC3 assays were determined with the software program SoftMax Pro as described earlier.
# [5] = test system: Trypanosoma brucei brucei (MITat 1.2, variant 221); assay: microbe, parasite or virus in culture; format: cell-based; conditions: read-out: IC50, T. b. brucei variant 221
# Procedure: as §2
# [6] = mean ± standard deviation of at least two independent measurements
# [7] = Leishmania donovani, Table 1, mean ± standard deviation of at least two independent measurements, read-out: IC50 vs. L. donovani amastigotes
# [8] = unit inferred, three-day tetrazolium dye assay, read-out: IC50, L. donovani axenic amastigotes
# [9] = Trypanosoma brucei, unit inferred
Compound,IC50 ([4]; unit inferred) [µM],IC50 ([5]; unit inferred) [µM],"IC50 [3, 8] [µM]",also measured
CCCNc1c([N+](=O)[O-])cc(S(N)(=O)=O)cc1[N+](=O)[O-] [Compound 13],–,–,–,"% Inhibition of Leishmanial Tubulin Assembly at 20 μM Compound [1]: 43 ± 19%; IC50 [2, 6]: 67 ± 18.4 µM"
CCCCCN(CCCCC)c1c([N+](=O)[O-])cc(S(N)(=O)=O)cc1[N+](=O)[O-] [Compound 16],–,–,–,"% Inhibition of Leishmanial Tubulin Assembly at 20 μM Compound [1]: 95 ± 5%; IC50 ([2]; Leishmania donovani): 8.02 ± 0.42 µM; IC50 [3, 7]: 9 ± 0.7 µM"
NS(=O)(=O)c1cc([N+](=O)[O-])c(N2CCCC2)c([N+](=O)[O-])c1 [Compound 19],–,–,–,"% Inhibition of Leishmanial Tubulin Assembly at 20 μM Compound [1]: 57 ± 18%; IC50 [2, 6]: 97.1 ± 53 µM"
CCCN(CCC)c1c([N+](=O)[O-])cc(C#N)cc1[N+](=O)[O-] [Compound 27],–,–,–,"% Inhibition of Leishmanial Tubulin Assembly at 20 μM Compound [1]: 25 ± 17%; IC50 [2, 6]: > 100 µM"
CCCN(CCC)c1c([N+](=O)[O-])cc(C(N)=NO)cc1[N+](=O)[O-] [Compound 29],–,–,–,"% Inhibition of Leishmanial Tubulin Assembly at 20 μM Compound [1]: 35 ± 7%; IC50 [2, 6]: > 100 µM"
"CCCN(CCC)c1c([N+](=O)[O-])cc(S(=O)(=O)Nc2cccc(OC)c2)cc1[N+](=O)[O-] [Compound 30, N1-(3-Methoxy)phenyl-3,5-dinitro-N4,N4-di-n-propylsulfonilamide]",25.3 ± 3.8,0.5,8.11 ± 3.33,–
"CCN(CC)c1c([N+](=O)[O-])cc(S(=O)(=O)Nc2ccccc2)cc1[N+](=O)[O-] [Compound 31, N1-Phenyl-3,5-dinitro-N4,N4-di-n-ethylsulfonilamide]",47.7 ± 1.6,1.9,10.6 ± 2.6,–
"CCCCN(CCCC)c1c([N+](=O)[O-])cc(S(=O)(=O)Nc2ccccc2)cc1[N+](=O)[O-] [Compound 32, N1-Phenyl-3,5-dinitro-N4,N4-di-n-butylsulfonilamide]",11.9 ± 0.5,0.1,2.57 ± 0.25,–
"CCCN(CCC)c1c([N+](=O)[O-])cc(S(=O)(=O)NC)cc1[N+](=O)[O-] [Compound 33, N1-Methyl-3,5-dinitro-N4,N4di-n-propylsulfonilamide]",–,4.6,> 100,–
"CCCN(CCC)c1c([N+](=O)[O-])cc(S(=O)(=O)N(C)C)cc1[N+](=O)[O-] [Compound 34, N1,M1-Dimethyl-3,5-dinitro-N4,N4-di-n-propylsulfonilamide]",–,5.9,> 100,–
"CCCN(CCC)c1c([N+](=O)[O-])cc(S(=O)(=O)NCC)cc1[N+](=O)[O-] [Compound 35, N1-Ethyl-3,5-dinitro-N4,N4-di-n-propylsulfonilamide]",–,4,> 100,–
"CCCN(CCC)c1c([N+](=O)[O-])cc(S(=O)(=O)N(CC)CC)cc1[N+](=O)[O-] [Compound 36, N1,N1-Diethyl-3,5-dinitro-N4,N4-di-n-propylsulfonilamide]",–,10.2,26.7 ± 0.4,–
"CCCN(CCC)c1c([N+](=O)[O-])cc(S(=O)(=O)NC(C)C)cc1[N+](=O)[O-] [Compound 38, N1-Isopropyl-3,5-dinitro-N4,N4-di-n-propylsulfonilamide]",–,2.5,42.8 ± 2.3,–
"CCCN(CCC)c1c([N+](=O)[O-])cc(S(=O)(=O)Nc2ccc(OC)cc2)cc1[N+](=O)[O-] [Compound 39, N1-(4-Methoxy)phenyl-3,5-dinitro-N4,N4-di-n-Propylsulfonilamide]",15.2 ± 6.7,20.5,31.9 ± 14.6,–
"CCCN(CCC)c1c([N+](=O)[O-])cc(S(=O)(=O)Nc2ccc(C)cc2)cc1[N+](=O)[O-] [Compound 40, N1-(4Methyl)phenyl-3,5-dinitro-N4,N4-di-n-propylsulfonilamide]",10.5 ± 2,10.5,32.1 ± 12.7,–
"CCCN(CCC)c1c([N+](=O)[O-])cc(S(=O)(=O)Nc2ccc(Cl)cc2)cc1[N+](=O)[O-] [Compound 41, N1-(4-Chloro)phenyl-3,5dinitro-N4,N4-di-n-propylsulfonilamide]",9.13 ± 3.81,9.5,13.3 ± 3,–
"CCCN(CCC)c1c([N+](=O)[O-])cc(S(=O)(=O)Nc2cccc(Cl)c2)cc1[N+](=O)[O-] [Compound 43, N1-(3-Chloro)phenyl-3,5-dinitro-N4,N4-di-n-propylsulfonilamide]",8.67 ± 0.17,0.88,5.47 ± 0.1,–
"CCCN(CCC)c1c([N+](=O)[O-])cc(S(=O)(=O)Nc2ccc(Cl)c(Cl)c2)cc1[N+](=O)[O-] [Compound 44, N1-(3,4-Dichloro)phenyl-3,5-dinitro-N4,N4-di-n-propylsulfonilamide]",7.19 ± 0.59,6.7,5.03 ± 0.8,–
"CCCN(CCC)c1c([N+](=O)[O-])cc(S(=O)(=O)Nc2cc(Cl)cc(Cl)c2)cc1[N+](=O)[O-] [Compound 45, N1-(3,5-Dichloro)phenyl-3,5-dinitro-N4,N4-di-n-propylsulfonilamide]",5.12 ± 0.35,3.4,3.71 ± 0.91,–
"CCCN(CCC)c1c([N+](=O)[O-])cc(S(=O)(=O)Nc2ccccn2)cc1[N+](=O)[O-] [Compound 46, N1-(2-Pyridinyl)-3,5-dinitro-N4,N4-di-n-propylsulfonilamide]",44.9 ± 16.3,10.9,59.7 ± 6.2,–
"N=C(N)c1ccc(OCCCCCOc2ccc(C(=N)N)cc2)cc1 [Pentamidine, reference compound]",–,–,–,"IC50 [5, 9]: 0.0194 ± 0.0069 µM; IC50 ([2]; Leishmania donovani, mean ± standard deviation of at least two independent measurements): 1.61 ± 0.22 µM; IC50 ([3]; Leishmania donovani, 72 h, unit inferred, three-day tetrazolium dye assay, read-out: IC50, L. donovani axenic amastigotes): 2 ± 0.06 µM; IC50 [3, 7]: 2 ± 0.06 µM"
"Cc1ccc(C(=O)Nc2ccc(S(=O)(=O)O)c3cc(S(=O)(=O)O)cc(S(=O)(=O)O)c23)cc1NC(=O)c1cccc(NC(=O)Nc2cccc(C(=O)Nc3cc(C(=O)Nc4ccc(S(=O)(=O)O)c5cc(S(=O)(=O)O)cc(S(=O)(=O)O)c45)ccc3C)c2)c1 [Suramin, reference compound]",–,–,–,"IC50 [5, 9]: 0.233 ± 0.05 µM"
"N1-(3-Methyl)phenyl-3,5-dinitro-N4,N4-di-n-propylsulfonilamide [Compound 42]",–,–,–,"IC50 [4]: 15.8 ± 2.1 µM; IC50 [5]: 0.92 µM; IC50 ([3]; read-out: IC50, L. donovani axenic amastigotes): 22.7 ± 0.8 µM"
